Assay results from patent publication US20070173539A1, “Use of malonomicin and analogs in fungicidal applications” (priority 2006, published 2007).

Tests used:
Type in all cases: in vivo
[1] = system: Leptosphaeria nodorum (LEPTNO); assay: Glume Blotch of Wheat one day protectant (1DP); conditions: wheat (Yuma), sprayed to runoff, rate 200 ppm
Procedure: Final treatment volumes were obtained by adding 0.1 percent aqueous Ethomeen T25 or 0.1 percent aqueous Spraymate X77+0.1 percent wt./vol. ammonium sulfate^+. Glume Blotch of Wheat (Leptosphaeria nodorum-[…]) Wheat (cultivar Yuma) was grown in plastic pots (6.2 cm×8.75 cm) containing 50 percent mineral soil, 50 percent Metro-Mix 360 (W.R Grace and Co.). until the seedlings were 10-20 cm tall. These plants were then sprayed to runoff with the test compound at a rate of 200 ppm. After 24 hours the test plants were inoculated by spraying with an aqueous spore suspension of Leptosphaeria nodorum ([…]). The plants were then transferred to a dew chamber for 24 hours, then to the greenhouse until disease developed on the untreated control plants.

[2] = system: Plasmopara viticola (PLASVI); assay: Downy Mildew of Grape one day protectant (1DP); conditions: grape (Carignane), sprayed to runoff, rate 200 ppm
Procedure: Final treatment volumes were obtained by adding 0.1 percent aqueous Ethomeen T25 or 0.1 percent aqueous Spraymate X77+0.1 percent wt./vol. ammonium sulfate^+. Downy Mildew of Grape (Plasmopara viticola-[…]) Vines (cultivar Carignane) were grown from seed in a soilless peat-based potting mixture “Metro-Mix 360” (W.R Grace and Co.) until the seedlings were 10-20 cm tall. These plants were then sprayed to runoff with the test compound at a rate of 200 ppm. After 24 hours the test plants were inoculated by spraying with an aqueous sporangia suspension of Plasmopara viticola ([…]). The plants were then transferred to a dew chamber for 24 hours, then to the greenhouse until disease developed on the untreated control plants.

[3] = system: Phytophthora infestans (PHYTIN); conditions: 1DP, tomato (rutgers), sprayed to runoff, rate 200 ppm
Septoria tritici SEPTTR = assay: Curative low volume test, wheat leaf blotch; conditions: curative 3 days, low volume 300 L/ha
Procedure: Tomatoes and grapes were grown in a soil-less peat-based potting mixture (Metro-Mix 360) while wheat was propagated in a 50/50 mix of mineral soil and Metro-Mix 360.
The malonomicin sample (Compound I) used in the low volume foliar spray was prepared by dissolving the material in deionized water with the desired adjuvant concentration. (0.05 percent Spraymate X-77+0.05 percent PVA+0.1 percent ammonium sulfate+0.1 percent EDTA)
For low volume applications, compound was applied to plants at the spray volume of 300 L/ha using a track sprayer with an SS8003E spray nozzle and a spray pressure of 255 kPa with a boom height of 40 cm from test plants. For a control, the same mixture is sprayed without active ingredient (solvent control).
Curative tests (DC) were inoculated the designated day(s) prior to treatment application. Disease severity was assessed as the percentage of the total surface area of the sprayed leaves covered by disease. Percent disease control relative to the solvent control was then calculated. Phytotoxicity symptoms and severity, if present, were also recorded. Four replicate plants per treatment for low volume applications were used.
Wheat plants were inoculated using approximately 1×10^7 spores/mL. Distilled water was poured into inoculum plates and the spores were dislodged using a spatula. The spores and water were filtered through 2 layers of cheesecloth, and three drops of Tween 20 per 100 mL of solution were added as a wetter. Test plants were then placed in a walk-in dew room at 22° C., 99 percent RH for 24 hours, after which time the plants were sub-irrigated with Hoagland's solution for 30 minutes and then moved into a misting greenhouse system where they were lightly misted every 90 seconds for three days. When the three-day misting period was completed, the plants were moved to the dry area of the greenhouse and bottom-watered daily until disease was fully expressed on the solvent control (10-14 days in summer, 14-21 days in winter). During the fall and winter months, the addition of a cart hood was used post-dew room, until assessment, in order to enhance disease uniformity and expression.

[4] = system: Septoria tritici (SEPTTR); assay: Speckled Leaf Blotch of Wheat one day protectant (1DP); conditions: wheat (Monon), sprayed to runoff, rate 200 ppm
Procedure: Final treatment volumes were obtained by adding 0.1 percent aqueous Ethomeen T25 or 0.1 percent aqueous Spraymate X77+0.1 percent wt./vol. ammonium sulfate^+. Speckled Leaf Blotch of Wheat (Septoria tritici-[…]) Wheat (cultivar Monon) was grown in plastic pots (6.2 cm×8.75 cm) containing 50 percent mineral soil, 50 percent Metro-Mix 360 (W.R Grace and Co.) until the seedlings were 10-20 cm tall. These plants were then sprayed to runoff with the test compound at a rate of 200 ppm. After 24 hours the test plants were inoculated by spraying with an aqueous spore suspension of Septoria tritici ([…]). The plants were then transferred to a dew chamber for 24 hours, then to the greenhouse until disease developed on the untreated control plants.

[5] = system: Venturia inaequalis (VENTIN); assay: Apple Scab one day protectant (1DP); conditions: 0.1 percent Spraymate X77 + 0.1 percent ammonium sulfate
[6] = system: Puccinia recondita f. sp. tritici PUCCRT; assay: Curative low volume test, wheat brown rust; conditions: low volume 300 L/ha; for PUCCRT 1DC percent disease control: curative 1 day; for PUCCRT 3DC percent disease control: curative 3 days
[7] = system: Venturia inaequalis (VENTIN); assay: Apple Scab curative (compound added 2 days after inoculation); conditions: Curative at 200 ppm
[8] = system: Colletotricum lagenarium (COLLLA); assay: Cucumber Anthracnose one day protectant (1DP); conditions: cucumber (Bush Champion), sprayed to runoff, rate 200 ppm
Procedure: Compound formulation was accomplished by dissolving Compound I, II, III, IV, V, or VI in water with serial dilutions to obtain desired rates. Final treatment volumes were obtained by adding 0.1 percent aqueous Ethomeen T25 or 0.1 percent aqueous Spraymate X77+0.1 percent wt./vol. ammonium sulfate^+.
Cucumber Anthracnose (Colletotricum lagenarium; COLLLA) (1DP)
Cucumber plants (variety Bush Champion) were grown in plastic pots containing 100 percent Metro-Mix 360 (W.R Grace and Co.) until the first true leaf was 20-80 percent expanded. Each pot contained 1 seedling. These plants were then sprayed to runoff with the test compound at a rate of 200 ppm. After 24 hours, the plants were sprayed with an aqueous spore suspension of Colletotricum lagenarium (COLLLA). The plants were then transferred to a dew chamber for 24 hours, then to a growth chamber until disease developed on the untreated control plants.

NC[C@@H]1NC(=O)C(C(=O)CC(NC(=O)[C@@H](N)CO)(C(=O)O)C(=O)O)=C1O [Compound I, {[(2S)-2-amino-3-hydroxypropanoyl]amino}{2-[(5S)-5-(aminomethyl)-4-hydroxy-2-oxo-2,5-dihydro-1H-pyrrol-3-yl]-2-oxoethyl}malonic acid]
LEPTNO percent control of plant disease [1]: + (+ = 30-74 percent control of plant disease)
PLASVI percent control of plant disease [2]: ++ (++ = 75-100 percent control of plant disease)
PHYTIN percent control of plant disease [3]: ++ (++ = 75-100 percent control of plant disease)
SEPTTR 3DC percent disease control (Septoria tritici SEPTTR; 7.8 g ai/ha): ++ (++ = 75-100 percent control)
SEPTTR 3DC percent disease control (Septoria tritici SEPTTR; 15.6 g ai/ha): ++ (++ = 75-100 percent control)
SEPTTR 3DC percent disease control (Septoria tritici SEPTTR; 31.2 g ai/ha): ++ (++ = 75-100 percent control)
SEPTTR 3DC percent disease control (Septoria tritici SEPTTR; 62.5 g ai/ha): ++ (++ = 75-100 percent control)
SEPTTR 3DC percent disease control (Septoria tritici SEPTTR; 125 g ai/ha): ++ (++ = 75-100 percent control)
SEPTTR 3DC percent disease control (Septoria tritici SEPTTR; 250 g ai/ha): ++ (++ = 75-100 percent control)
SEPTTR percent control of plant disease [4]: ++ (++ = 75-100 percent control of plant disease)
VENTIN percent control of plant disease ([5]; 50 ppm): ++ (++ = 75-100 percent control of plant disease)
VENTIN percent control of plant disease ([5]; 100 ppm): ++ (++ = 75-100 percent control of plant disease)
VENTIN percent control of plant disease ([5]; rate 200 ppm): + (+ = 30-74 percent control of plant disease)
PUCCRT 1DC percent disease control ([6]; 7.8 g ai/ha): − (− = 0-29 percent control of plant disease)
PUCCRT 1DC percent disease control ([6]; 15.6 g ai/ha): − (− = 0-29 percent control of plant disease)
PUCCRT 1DC percent disease control ([6]; 31.2 g ai/ha): + (+ = 30-74 percent control of plant disease)
PUCCRT 1DC percent disease control ([6]; 62.5 g ai/ha): + (+ = 30-74 percent control of plant disease)
PUCCRT 1DC percent disease control ([6]; 125 g ai/ha): ++ (++ = 75-100 percent control)
PUCCRT 1DC percent disease control ([6]; 250 g ai/ha): ++ (++ = 75-100 percent control)
PUCCRT 3DC percent disease control ([6]; 7.8 g ai/ha): − (− = 0-29 percent control of plant disease)
PUCCRT 3DC percent disease control ([6]; 15.6 g ai/ha): + (+ = 30-74 percent control of plant disease)
PUCCRT 3DC percent disease control ([6]; 31.2 g ai/ha): ++ (++ = 75-100 percent control)
PUCCRT 3DC percent disease control ([6]; 62.5 g ai/ha): ++ (++ = 75-100 percent control)
PUCCRT 3DC percent disease control ([6]; 125 g ai/ha): ++ (++ = 75-100 percent control)
PUCCRT 3DC percent disease control ([6]; 250 g ai/ha): ++ (++ = 75-100 percent control)
VENTIN percent control of plant disease [7]: ++ (++ = 75-100 percent control of plant disease)
COLLLA percent control of plant disease [8]: − (− = 0-29 percent control of plant disease)
